In general, IC50 refers to the point on the concentration scale where inhibition reaches its midpoint.

Some results are limits rather than exact numbers.

One assay has as its target T1, human CRTH2 (Homo sapiens, UniProt Q9Y5Y4).
T1 construct: expressed in transfected cells
T1 sequence (Q9Y5Y4 1-395): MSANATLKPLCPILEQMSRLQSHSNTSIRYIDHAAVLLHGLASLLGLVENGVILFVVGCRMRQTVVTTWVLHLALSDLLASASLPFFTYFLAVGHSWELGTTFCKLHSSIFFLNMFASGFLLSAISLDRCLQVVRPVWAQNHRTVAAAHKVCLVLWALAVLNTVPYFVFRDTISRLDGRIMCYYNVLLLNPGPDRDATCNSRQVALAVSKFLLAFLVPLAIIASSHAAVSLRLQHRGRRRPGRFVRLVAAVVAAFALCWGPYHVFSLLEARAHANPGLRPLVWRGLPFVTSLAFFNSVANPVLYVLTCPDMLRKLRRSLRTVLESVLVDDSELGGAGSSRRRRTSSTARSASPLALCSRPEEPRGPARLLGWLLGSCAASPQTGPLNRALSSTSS
Kind of assay: [35S]GTPγS binding assay (SPA) on membranes from CHO-K1 cells stably expressing human CRTH2, stimulated with 60 nM DHK-PGD2. The assay is classed as biochemical. The following applies: membranes of CHO-K1 cells expressing human CRTH2; 60 nM DHK-PGD2; Table 1; read-out: CRTH2 hGTPγS IC50. How it is done:
[^35S]GTPγS Binding Assay
SPA [^35S]G-TPγS binding was performed on membranes from CHO-K1 cells stably expressing human CRTH2. To a white, clear-bottomed 384-well plate, 4 μg membrane protein was incubated in the binding buffer (20 mM HEPES, pH 7.4, 10 mM MgCl2, 300 mM NaCl, 0.2% BSA) with 60 nM DHK-PGD2, 500 pM [^35S]GTPγS, 10 μM GDP, and 100 μg wheat germ agglutinin-coupled SPA beads (GE Healthcare) with and without increasing concentrations of compounds. The final assay volume was 40 μL and contained 1% DMSO. Samples were incubated for 2 h at ambient temperature. Plates were centrifuged 5 min at 1500 rpm. Plates were read after an additional 4 h using the Trilux 1450 Microbeta (PerkinElmer) with a 30 sec/well reading time.
(In general: GTPγS is a poorly hydrolysed GTP analogue; its binding reports G protein activation.)
Take `COc1cc(F)cc(-c2cc(CN(C)S(=O)(=O)c3ccc(F)c(Cl)c3)ccc2OCC(=O)O)c1` [Example 37, 2-(3-fluoro-5-methoxyphenyl)-4-((3-chloro-4-fluoro-N-methylphenylsulfonamido)methyl)phenoxyacetic acid]: the IC50 was found to be 0.0006 µM.

As to `CN(Cc1ccc(OCC(=O)O)c(-c2ccc3nonc3c2)c1)S(=O)(=O)c1ccc(F)cc1` [Example 187, 2-(5-benzo[c][1,2,5]oxadiazolyl)-4-((4-fluoro-N-methylphenylsulfonamido)methyl)phenoxyacetic acid], the IC50 is 0.019 µM.

With `CN(Cc1ccc(OCC(=O)O)c(-c2cc(F)cc(C#N)c2)c1)S(=O)(=O)c1ccc(F)cc1` [Example 64, 2-(3-cyano-5-fluorophenyl)-4-((4-fluoro-N-methylphenylsulfonamido)methyl)phenoxyacetic acid], the IC50 was 0.012 µM.

On to `CN(Cc1ccc(OCC(=O)O)c(-c2cc(F)cc(C#N)c2)c1)S(=O)(=O)c1ccc(Cl)c(Cl)c1` [Example 38, 2-(3-cyano-5-fluorophenyl)-4-((3,4-dichloro-N-methylphenylsulfonamido)methyl)phenoxyacetic acid], for which the half-inhibitory concentration (IC50) came to 0.0007 µM.

Take `CN(Cc1ccc(OCC(=O)O)c(-c2cc(F)cc(C#N)c2)c1)S(=O)(=O)c1cc(Cl)c(Cl)s1` [Example 192, 2-(3-cyano-5-fluorophenyl)-4-((2,3-dichloro-N-methylthiophene-5-sulfonamido)methyl)phenoxyacetic acid]: the half-inhibitory concentration (IC50) was 0.0002 µM.

The assay is the same for the next values; noted with them: potency class symbols; Table 2; read-out: CRTH2 hGTPγS IC50.
Consider `CN(Cc1ccc(OCC(=O)O)c(-c2cccc3ncccc23)c1)S(=O)(=O)c1ccc(F)cc1` [Example 180, 2-(quinolin-5-yl)-4-((4-fluoro-N-methylphenylsulfonamido)methyl)phenoxyacetic acid], for which the half-maximal inhibitory concentration (IC50) fell in the range of 1 to 10 µM.

For the compound `CN(Cc1ccc(OCC(=O)O)c(-c2cccc(OC(F)(F)F)c2)c1)S(=O)(=O)c1ccc(F)cc1` [Example 125, 2-(3-trifluoromethoxyphenyl)-4-((4-fluoro-N-methylphenylsulfonamido)methyl)phenoxyacetic acid], the IC50 fell in the range of 0.1 to 1 µM.

For `CN(Cc1cc(-c2cccc(C#N)c2)c(OCC(=O)O)cc1Cl)S(=O)(=O)c1cccc(F)c1` [Example 53, 2-(3-cyanophenyl)-4-((3-fluoro-N-methylphenylsulfonamido)methyl)-5-chlorophenoxyacetic acid], the concentration for half-maximal inhibition (IC50) was below 0.1 µM.

In the case of `CN(Cc1ccc(OCC(=O)O)c(-c2ccc(C(F)(F)F)cc2)c1)S(=O)(=O)c1ccc(F)cc1` [Example 162, 2-(4-trifluoromethylphenyl)-4-((4-fluoro-N-methylphenylsulfonamido)methyl)phenoxyacetic acid], the IC50 lay within 1 to 10 µM.

As to `CN(Cc1cc(-c2cccc(C#N)c2)c(OCC(=O)O)cc1F)S(=O)(=O)c1ccc(F)cc1` [Example 77, 2-(3-cyanophenyl)-4-((4-fluoro-N-methylphenylsulfonamido)methyl)-5-fluorophenoxyacetic acid], the IC50 is below 0.1 µM.

Take `CN(Cc1cc(-c2cc(F)cc(C#N)c2)c(OCC(=O)O)cc1Cl)S(=O)(=O)c1ccc(F)cc1` [Example 213, 2-(3-cyano-5-fluoro-phenyl)-4-((4-fluoro-N-methylphenylsulfonamido)methyl)-5-chlorophenoxyacetic acid]: the IC50 is below 0.1 µM.

For `COc1cc(F)cc(-c2cc(CN(C)S(=O)(=O)c3ccc(F)c(Cl)c3)ccc2OCC(=O)O)c1` [Example 37, 2-(3-fluoro-5-methoxyphenyl)-4-((3-chloro-4-fluoro-N-methylphenylsulfonamido)methyl)phenoxyacetic acid], the IC50 is below 0.1 µM.

As for `CN(Cc1ccc(OCC(=O)O)c(-c2cccc(C(F)(F)F)c2)c1)S(=O)(=O)c1ccc(Cl)cc1` [Example 116, 2-(3-trifluoromethylphenyl)-4-((4-chloro-N-methylphenylsulfonamido)methyl)phenoxyacetic acid], the IC50 is 0.1 to 1 µM.

Regarding `CN(Cc1ccc(OCC(=O)O)c(-c2cccc(C(F)(F)F)c2)c1)S(=O)(=O)c1ccc(F)cc1F` [Example 107, 2-(3-trifluoromethylphenyl)-4-((2,4-difluoro-N-methylphenylsulfonamido)methyl)phenoxyacetic acid], the IC50 was in the range of 0.1 to 1 µM.

Take `CN(Cc1ccc(OCC(=O)O)c(-c2ccc3cc[nH]c3c2)c1)S(=O)(=O)c1ccc(F)cc1` [Example 183, 2-(1H-indol-6-yl)-4-((4-fluoro-N-methylphenylsulfonamido)methyl)phenoxyacetic acid]: the IC50 lay in the range of 1 to 10 µM.

In the case of `CN(Cc1ccc(OCC(=O)O)c(-c2cc(F)cc(C#N)c2)c1)S(=O)(=O)c1cccs1` [Example 190, 2-(3-cyano-5-fluorophenyl)-4-((N-methylthiophene-2-sulfonamido)methyl)phenoxyacetic acid], the IC50 is below 0.1 µM.

Consider `Cc1ccc(S(=O)(=O)N(C)Cc2ccc(OCC(=O)O)c(-c3cccc(C#N)c3)c2)cc1` [Example 109, 2-(3-cyanophenyl)-4-((4-methyl-N-methylphenylsulfonamido)methyl)phenoxyacetic acid], for which the IC50 was in the range of 0.1 to 1 µM.

Turning to `CN(Cc1ccc(OCC(=O)O)c(-c2ccc3nonc3c2)c1)S(=O)(=O)c1ccc(F)cc1` [Example 187, 2-(5-benzo[c][1,2,5]oxadiazolyl)-4-((4-fluoro-N-methylphenylsulfonamido)methyl)phenoxyacetic acid], the IC50 is below 0.1 µM.

As for `CN(Cc1ccc(OCC(=O)O)c(-c2cccnc2)c1)S(=O)(=O)c1ccc(F)cc1` [Example 147, 2-(3-pyridinyl)-4-((4-fluoro-N-methylphenylsulfonamido)methyl)phenoxyacetic acid], the IC50 lay in the range of 0.1 to 1 µM.

Take `CN(Cc1ccc(OCC(=O)O)c(-c2cc(C(F)(F)F)ccn2)c1)S(=O)(=O)c1ccc(F)cc1` [Example 168, 2-(4-trifluoromethylpyridinyl)-4-((4-fluoro-N-methylphenylsulfonamido)methyl)phenoxyacetic acid]: the IC50 is 1 to 10 µM.

For the compound `COc1ccc(S(=O)(=O)N(C)Cc2ccc(OCC(=O)O)c(-c3cccc(C#N)c3)c2)cc1F` [Example 71, 2-(3-cyanophenyl)-4-((3-fluoro-4-methoxy-N-methylphenylsulfonamido)methyl)phenoxyacetic acid], the IC50 was below 0.1 µM.

`CN(Cc1ccc(OCC(=O)O)c(-c2cc(F)cc(C#N)c2)c1)S(=O)(=O)c1ccc(F)cc1` [Example 64, 2-(3-cyano-5-fluorophenyl)-4-((4-fluoro-N-methylphenylsulfonamido)methyl)phenoxyacetic acid]: the IC50 was below 0.1 µM.

For `CN(Cc1ccc(OCC(=O)O)c(-c2cc(F)cc(Cl)c2)c1)S(=O)(=O)c1ccccc1` [Example 150, 2-(3-chloro-5-fluorophenyl)-4-((-N-methylphenylsulfonamido)methyl)phenoxyacetic acid], the IC50 was 0.1 to 1 µM.

For the compound `CC(C)Oc1cc(F)cc(-c2cc(CN(C)S(=O)(=O)c3ccc(F)cc3)ccc2OCC(=O)O)c1` [Example 100, 2-(3-isopropoxy-5-fluorophenyl)-4-((4-fluoro-N-methylphenylsulfonamido)methyl)phenoxyacetic acid], the IC50 was below 0.1 µM.

Regarding `CN(Cc1ccc(OCC(=O)O)c(-c2cccc(F)c2)c1)S(=O)(=O)c1ccc(F)cc1` [Example 130, 2-(3-fluorophenyl)-4-((4-fluoro-N-methylphenylsulfonamido)methyl)phenoxyacetic acid], the IC50 lay in the range of 0.1 to 1 µM.

Take `CN(Cc1ccc(OCC(=O)O)c(-c2ccc3ccncc3c2)c1)S(=O)(=O)c1ccc(F)cc1` [Example 212, 2-(isoquinolin-7-yl)-4-((4-fluoro-N-methylphenylsulfonamido)methyl)phenoxyacetic acid]: the IC50 lay in the range of 0.1 to 1 µM.

Take `CC(c1ccc(OCC(=O)O)c(-c2cccc(C(F)(F)F)c2)c1)N(C)S(=O)(=O)c1ccc(F)c(F)c1` (centres unmarked) [Example 93, 2-(3-trifluoromethylphenyl)-4-(1-(3,4-difluoro-N-methylphenylsulfonamido)ethyl)phenoxyacetic acid]: the half-inhibitory concentration (IC50) was below 0.1 µM.

On to `CN(Cc1cc(-c2cccc(C#N)c2)c(OCC(=O)O)cc1F)S(=O)(=O)c1ccc(F)c(Cl)c1` [Example 43, 2-(3-cyanophenyl)-4-((3-chloro-4-fluoro-N-methylphenylsulfonamido)methyl)-5-fluorophenoxyacetic acid], for which the half-maximal inhibitory concentration (IC50) was below 0.1 µM.

On to `CN(Cc1ccc(OCC(=O)O)c(-c2cccc(C(F)(F)F)c2)c1)S(=O)(=O)c1cccc(Cl)c1` [Example 111, 2-(3-trifluoromethylphenyl)-4-((3-chloro-N-methylphenylsulfonamido)methyl)phenoxyacetic acid], for which the IC50 was 0.1 to 1 µM.

In the case of `CN(C)S(=O)(=O)N(C)Cc1ccc(OCC(=O)O)c(-c2cccc(C(F)(F)F)c2)c1` [Example 182, 2-(3-trifluoromethylphenyl)-4-((N-methyldimethylaminosulfonamido)methyl)phenoxy acetic acid], the IC50 lay within 1 to 10 µM.

In the case of `CN(Cc1ccc(OCC(=O)O)c(-c2cc(F)cc(C#N)c2)c1)S(=O)(=O)c1ccc(Cl)c(Cl)c1` [Example 38, 2-(3-cyano-5-fluorophenyl)-4-((3,4-dichloro-N-methylphenylsulfonamido)methyl)phenoxyacetic acid], the IC50 is below 0.1 µM.

As to `CN(Cc1cc(-c2cccc(C#N)c2)c(OCC(=O)O)cc1F)S(=O)(=O)c1ccccc1` [Example 98, 2-(3-cyanophenyl)-4-((N-methylphenylsulfonamido)methyl)-5-fluorophenoxyacetic acid], the IC50 was below 0.1 µM.

As for `CN(Cc1ccc(OCC(=O)O)c(-c2cccc(S(C)(=O)=O)c2)c1)S(=O)(=O)c1cccc(C#N)c1` [Example 88, 2-(3-methylsulfonylphenyl)-4-((3-cyano-N-methylphenylsulfonamido)methyl)phenoxyacetic acid], the concentration for half-maximal inhibition (IC50) is below 0.1 µM.

With `CN(Cc1ccc(OCC(=O)O)c(-c2cc(F)cc(C#N)c2)c1)S(=O)(=O)c1cc(F)cc(F)c1` [Example 76, 2-(3-cyano-5-fluorophenyl)-4-((3,5-difluoro-N-methylphenylsulfonamido)methyl)phenoxyacetic acid], the IC50 was below 0.1 µM.

Consider `CN(Cc1ccc(OCC(=O)O)c(-c2cc(F)cc(C#N)c2)c1)S(=O)(=O)c1cc(Cl)c(Cl)s1` [Example 192, 2-(3-cyano-5-fluorophenyl)-4-((2,3-dichloro-N-methylthiophene-5-sulfonamido)methyl)phenoxyacetic acid], for which the IC50 is below 0.1 µM.
